According to patent publication US20260356819A1, “OXOISOINDOLINYL-SUBSTITUTED […] DERIVATIVE AND USE THEREOF” (GLUETACS THERAPEUTICS (SHANGHAI) CO., LTD., priority 2023, published 2026):

Experiments:
Format in all cases: cell-based
Conditions in all cases: compounds at 50 nM and 500 nM
[1] = molecular target: T1, WEE1 (Homo sapiens, UniProt P30291+Q96SW2); assay: Western blot degradation of WEE1 in hPBMCs (24 h)
T1 construct: The supernatant was aspirated as the extracted total cell protein; endogenous in cells; host or cells: human peripheral blood mononuclear cells (hPBMCs)
T1 sequence (P30291 whole entry): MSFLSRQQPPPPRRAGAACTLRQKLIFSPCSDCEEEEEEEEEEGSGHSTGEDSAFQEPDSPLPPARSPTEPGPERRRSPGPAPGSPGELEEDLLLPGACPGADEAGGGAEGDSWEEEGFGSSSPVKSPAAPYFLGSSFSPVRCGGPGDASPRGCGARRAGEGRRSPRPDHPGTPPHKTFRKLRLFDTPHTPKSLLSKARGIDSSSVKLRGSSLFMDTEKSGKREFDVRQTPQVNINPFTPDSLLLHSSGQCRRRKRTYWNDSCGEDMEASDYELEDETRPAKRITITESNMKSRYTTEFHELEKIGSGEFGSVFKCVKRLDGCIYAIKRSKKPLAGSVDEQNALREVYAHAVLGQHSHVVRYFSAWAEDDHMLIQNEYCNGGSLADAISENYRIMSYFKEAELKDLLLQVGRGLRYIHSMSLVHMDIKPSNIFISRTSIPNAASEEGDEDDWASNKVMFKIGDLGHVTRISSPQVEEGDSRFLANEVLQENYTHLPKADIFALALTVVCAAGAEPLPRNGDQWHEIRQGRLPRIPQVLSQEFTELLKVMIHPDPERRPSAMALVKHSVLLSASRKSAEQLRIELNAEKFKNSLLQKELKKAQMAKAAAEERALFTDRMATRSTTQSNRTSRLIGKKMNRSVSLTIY
T1 sequence (Q96SW2 whole entry): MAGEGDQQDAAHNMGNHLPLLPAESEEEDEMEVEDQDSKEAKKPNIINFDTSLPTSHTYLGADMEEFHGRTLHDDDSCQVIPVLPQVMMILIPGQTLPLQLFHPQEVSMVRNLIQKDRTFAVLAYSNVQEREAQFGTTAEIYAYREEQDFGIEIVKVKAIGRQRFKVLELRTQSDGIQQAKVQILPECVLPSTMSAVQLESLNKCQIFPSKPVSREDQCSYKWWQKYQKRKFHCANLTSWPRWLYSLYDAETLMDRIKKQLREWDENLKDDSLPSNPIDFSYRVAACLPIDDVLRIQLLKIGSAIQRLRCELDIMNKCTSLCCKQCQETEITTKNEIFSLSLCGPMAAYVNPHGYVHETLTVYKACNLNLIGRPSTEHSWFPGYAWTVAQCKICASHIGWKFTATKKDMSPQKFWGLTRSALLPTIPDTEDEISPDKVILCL
T1 sequence (Q16531 whole entry partner): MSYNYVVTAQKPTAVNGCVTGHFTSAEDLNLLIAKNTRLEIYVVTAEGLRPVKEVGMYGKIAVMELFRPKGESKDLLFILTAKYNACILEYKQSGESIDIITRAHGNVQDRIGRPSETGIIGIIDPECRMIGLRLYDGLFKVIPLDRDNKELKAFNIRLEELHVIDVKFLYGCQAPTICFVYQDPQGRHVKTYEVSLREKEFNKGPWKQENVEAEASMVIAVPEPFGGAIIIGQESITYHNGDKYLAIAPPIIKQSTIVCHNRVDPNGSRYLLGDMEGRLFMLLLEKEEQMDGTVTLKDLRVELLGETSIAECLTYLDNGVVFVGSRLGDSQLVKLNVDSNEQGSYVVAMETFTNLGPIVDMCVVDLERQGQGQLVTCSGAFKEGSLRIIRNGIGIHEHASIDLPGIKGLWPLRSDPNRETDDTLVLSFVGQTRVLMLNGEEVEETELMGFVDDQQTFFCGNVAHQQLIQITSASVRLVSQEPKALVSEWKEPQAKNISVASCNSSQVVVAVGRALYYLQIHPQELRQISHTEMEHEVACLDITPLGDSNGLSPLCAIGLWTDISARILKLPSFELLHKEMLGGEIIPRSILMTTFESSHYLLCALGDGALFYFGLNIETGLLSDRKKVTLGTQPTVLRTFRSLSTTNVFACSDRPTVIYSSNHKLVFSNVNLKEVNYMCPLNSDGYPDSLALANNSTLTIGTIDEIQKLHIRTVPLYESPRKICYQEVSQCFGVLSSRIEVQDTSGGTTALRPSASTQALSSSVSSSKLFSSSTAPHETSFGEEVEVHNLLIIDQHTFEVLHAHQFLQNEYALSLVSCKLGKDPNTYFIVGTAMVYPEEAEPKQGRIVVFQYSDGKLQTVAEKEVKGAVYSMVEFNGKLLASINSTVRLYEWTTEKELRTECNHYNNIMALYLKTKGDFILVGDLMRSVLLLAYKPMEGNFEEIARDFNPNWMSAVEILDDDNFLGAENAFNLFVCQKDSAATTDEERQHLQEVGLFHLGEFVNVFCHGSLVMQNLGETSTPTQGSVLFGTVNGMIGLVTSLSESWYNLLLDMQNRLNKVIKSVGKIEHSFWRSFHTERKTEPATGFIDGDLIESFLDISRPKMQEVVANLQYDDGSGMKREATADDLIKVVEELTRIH
Outline: (§1)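 Compounds were tested at 50 nM and 500 nM on hPBMCs (1×10^6 cells/mL) for 24 h, alongside DMSO. Proteins were detected by Western blot after denaturation at 95 °C; remaining protein computed from normalised band grayscale.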

[2] = molecular target: T2, GSPT1 (Homo sapiens, UniProt P15170+Q96SW2); assay: Western blot degradation of GSPT1 in hPBMCs (24 h)
T2 construct: The supernatant was aspirated as the extracted total cell protein; endogenous in cells; host or cells: human peripheral blood mononuclear cells (hPBMCs)
Outline: as §1

[3] = molecular target: T3, CK1α (Homo sapiens, UniProt P48729+Q96SW2); assay: Western blot degradation of CK1α in hPBMCs (24 h)
T3 construct: The supernatant was aspirated as the extracted total cell protein; endogenous in cells; host or cells: human peripheral blood mononuclear cells (hPBMCs)
T3 sequence (P48729 whole entry): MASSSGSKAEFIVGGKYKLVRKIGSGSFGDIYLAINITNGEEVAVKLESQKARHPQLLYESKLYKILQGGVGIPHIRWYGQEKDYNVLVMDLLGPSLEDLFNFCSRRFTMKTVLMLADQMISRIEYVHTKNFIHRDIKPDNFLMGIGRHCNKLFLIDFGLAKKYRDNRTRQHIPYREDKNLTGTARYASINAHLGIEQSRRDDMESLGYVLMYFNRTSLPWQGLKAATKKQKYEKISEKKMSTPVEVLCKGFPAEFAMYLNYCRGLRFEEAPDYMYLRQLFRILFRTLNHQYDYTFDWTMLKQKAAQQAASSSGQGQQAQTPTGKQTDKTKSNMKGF
T3 sequence (Q96SW2 whole entry): as the sequence (Q96SW2 whole entry) above
T3 sequence (Q16531 whole entry partner): as the sequence (Q16531 whole entry partner) above
Outline: as §1

[4] = molecular target: T4, IKZF1 (Homo sapiens, UniProt Q13422+Q96SW2); assay: Western blot degradation of IKZF1 in hPBMCs (24 h)
T4 construct: The supernatant was aspirated as the extracted total cell protein; endogenous in cells; host or cells: human peripheral blood mononuclear cells (hPBMCs)
T4 sequence (Q13422 whole entry): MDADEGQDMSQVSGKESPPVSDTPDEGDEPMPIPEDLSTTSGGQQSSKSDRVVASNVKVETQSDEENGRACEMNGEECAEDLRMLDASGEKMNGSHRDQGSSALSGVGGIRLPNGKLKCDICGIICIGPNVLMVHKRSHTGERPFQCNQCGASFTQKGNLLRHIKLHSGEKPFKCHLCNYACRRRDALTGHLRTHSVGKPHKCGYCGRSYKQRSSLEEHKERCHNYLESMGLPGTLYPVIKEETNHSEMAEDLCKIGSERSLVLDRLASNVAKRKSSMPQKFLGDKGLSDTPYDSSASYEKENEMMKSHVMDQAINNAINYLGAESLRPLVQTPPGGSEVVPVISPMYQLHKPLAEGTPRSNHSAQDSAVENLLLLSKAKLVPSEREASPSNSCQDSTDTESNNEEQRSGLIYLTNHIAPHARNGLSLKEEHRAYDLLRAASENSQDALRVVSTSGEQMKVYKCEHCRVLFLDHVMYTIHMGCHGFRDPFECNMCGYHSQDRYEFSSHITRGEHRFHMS
T4 sequence (Q96SW2 whole entry): as the sequence (Q96SW2 whole entry) above
T4 sequence (Q16531 whole entry partner): as the sequence (Q16531 whole entry partner) above
Outline: as §1

[5] = molecular target: T5, IKZF2 (Homo sapiens, UniProt Q96SW2+Q9UKS7); assay: Western blot degradation of IKZF2 in hPBMCs (24 h)
T5 construct: The supernatant was aspirated as the extracted total cell protein; endogenous in cells; host or cells: human peripheral blood mononuclear cells (hPBMCs)
T5 sequence (Q9UKS7 whole entry): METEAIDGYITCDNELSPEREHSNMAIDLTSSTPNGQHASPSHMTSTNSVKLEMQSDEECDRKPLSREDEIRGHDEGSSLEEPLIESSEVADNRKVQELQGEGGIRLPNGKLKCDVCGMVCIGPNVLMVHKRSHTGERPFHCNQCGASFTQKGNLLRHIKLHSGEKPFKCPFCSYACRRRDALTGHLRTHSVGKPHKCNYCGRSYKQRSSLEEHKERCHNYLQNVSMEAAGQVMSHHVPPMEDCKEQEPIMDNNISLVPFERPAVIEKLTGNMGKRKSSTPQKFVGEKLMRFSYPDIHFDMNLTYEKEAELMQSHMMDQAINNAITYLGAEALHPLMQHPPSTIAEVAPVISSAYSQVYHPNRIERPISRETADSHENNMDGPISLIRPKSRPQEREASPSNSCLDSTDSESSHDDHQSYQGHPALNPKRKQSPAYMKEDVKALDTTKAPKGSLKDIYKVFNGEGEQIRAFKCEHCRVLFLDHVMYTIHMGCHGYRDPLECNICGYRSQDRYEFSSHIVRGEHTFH
T5 sequence (Q96SW2 whole entry): as the sequence (Q96SW2 whole entry) above
T5 sequence (Q16531 whole entry partner): as the sequence (Q16531 whole entry partner) above
Outline: as §1

[6] = molecular target: T6, IKZF3 (Homo sapiens, UniProt Q96SW2+Q9UKT9); assay: Western blot degradation of IKZF3 in hPBMCs (24 h)
T6 construct: The supernatant was aspirated as the extracted total cell protein; endogenous in cells; host or cells: human peripheral blood mononuclear cells (hPBMCs)
T6 sequence (Q9UKT9 whole entry): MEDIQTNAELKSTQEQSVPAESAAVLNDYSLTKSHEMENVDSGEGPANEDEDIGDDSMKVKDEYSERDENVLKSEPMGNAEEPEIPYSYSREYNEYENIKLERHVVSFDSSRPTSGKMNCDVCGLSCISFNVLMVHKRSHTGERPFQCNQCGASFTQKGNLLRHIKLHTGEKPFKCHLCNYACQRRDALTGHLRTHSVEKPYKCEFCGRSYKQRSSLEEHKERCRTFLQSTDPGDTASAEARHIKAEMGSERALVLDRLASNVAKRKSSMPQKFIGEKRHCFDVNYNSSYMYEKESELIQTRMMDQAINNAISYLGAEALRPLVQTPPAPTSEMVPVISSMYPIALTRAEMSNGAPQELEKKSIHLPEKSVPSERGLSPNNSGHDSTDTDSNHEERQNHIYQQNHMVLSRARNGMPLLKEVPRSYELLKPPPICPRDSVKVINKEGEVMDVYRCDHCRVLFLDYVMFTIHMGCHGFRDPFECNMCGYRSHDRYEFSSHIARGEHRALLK
T6 sequence (Q96SW2 whole entry): as the sequence (Q96SW2 whole entry) above
T6 sequence (Q16531 whole entry partner): as the sequence (Q16531 whole entry partner) above
Outline: as §1

O=C1CCN(N2C(=O)c3ccc(CN4CC=C(c5n[nH]c6cc(F)ccc56)CC4)cc3C2=O)C(=O)N1 [GT-07643, 2-(2,4-dioxotetrahydropyrimidin-1(2H)-yl)-5-((4-(6-fluoro-1H-indazol-3-yl)-3,6-dihydropyridin-1(2H)-yl)methyl)isoindoline-1,3-dione]
WEE1 substrate protein remaining % [1]: B (80%< substrate protein remaining % ≤100%)
GSPT1 substrate protein remaining % [2]: A (0% ≤ substrate protein remaining % ≤80%)
CK1α substrate protein remaining % [3]: B (80%< substrate protein remaining % ≤100%)
IKZF1 substrate protein remaining % [4]: B (80%< substrate protein remaining % ≤100%)
IKZF2 substrate protein remaining % [5]: B (80%< substrate protein remaining % ≤100%)
IKZF3 substrate protein remaining % [6]: B (80%< substrate protein remaining % ≤100%)

O=C1CCN(N2Cc3cc(CN4CCC(c5cccc6cnccc56)CC4)ccc3C2=O)C(=O)N1 [GT-07644, 1-(5-((4-(isoquinolin-5-yl)piperidin-1-yl)methyl)-1-oxoisoindolin-2-yl)dihydropyrimidine-2,4(1H,3H)-dione]
WEE1 substrate protein remaining % [1]: B (80%< substrate protein remaining % ≤100%)
GSPT1 substrate protein remaining % [2]: A (0% ≤ substrate protein remaining % ≤80%)
CK1α substrate protein remaining % [3]: B (80%< substrate protein remaining % ≤100%)
IKZF1 substrate protein remaining % [4]: B (80%< substrate protein remaining % ≤100%)
IKZF2 substrate protein remaining % [5]: B (80%< substrate protein remaining % ≤100%)
IKZF3 substrate protein remaining % [6]: B (80%< substrate protein remaining % ≤100%)

O=C1CCN(N2Cc3cc(CN4CCC(c5ccnc6cc(F)ccc56)CC4)ccc3C2=O)C(=O)N1 [GT-07645, 1-(5-((4-(7-fluoroquinolin-4-yl)piperidin-1-yl)methyl)-1-oxoisoindolin-2-yl)dihydropyrimidine-2,4(1H,3H)-dione]
WEE1 substrate protein remaining % [1]: B (80%< substrate protein remaining % ≤100%)
GSPT1 substrate protein remaining % [2]: A (0% ≤ substrate protein remaining % ≤80%)
CK1α substrate protein remaining % [3]: B (80%< substrate protein remaining % ≤100%)
IKZF1 substrate protein remaining % [4]: A (0% ≤ substrate protein remaining % ≤80%)
IKZF2 substrate protein remaining % [5]: B (80%< substrate protein remaining % ≤100%)
IKZF3 substrate protein remaining % [6]: B (80%< substrate protein remaining % ≤100%)

O=C1CCN(N2C(=O)c3ccc(CN4CCC(N5CCCc6cc(F)ccc65)CC4)cc3C2=O)C(=O)N1 [GT-07681, 2-(2,4-dioxotetrahydropyrimidin-1(2H)-yl)-5-((4-(6-fluoro-3,4-dihydroquinolin-1(2H)-yl)piperidin-1-yl)methyl)isoindoline-1,3-dione]
WEE1 substrate protein remaining % [1]: B (80%< substrate protein remaining % ≤100%)
GSPT1 substrate protein remaining % [2]: A (0% ≤ substrate protein remaining % ≤80%)
CK1α substrate protein remaining % [3]: B (80%< substrate protein remaining % ≤100%)
IKZF1 substrate protein remaining % [4]: A (0% ≤ substrate protein remaining % ≤80%)
IKZF2 substrate protein remaining % [5]: B (80%< substrate protein remaining % ≤100%)
IKZF3 substrate protein remaining % [6]: B (80%< substrate protein remaining % ≤100%)

O=C1CCN(N2C(=O)c3ccc(CN4CCC(N5CCOc6cc(F)ccc65)CC4)cc3C2=O)C(=O)N1 [GT-07682, 2-(2,4-dioxotetrahydropyrimidin-1(2H)-yl)-5-((4-(7-fluoro-2,3-dihydro-4H-benzo[b][1,4]oxazin-4-yl)piperidin-1-yl)methyl)isoindoline-1,3-dione]
WEE1 substrate protein remaining % [1]: B (80%< substrate protein remaining % ≤100%)
GSPT1 substrate protein remaining % [2]: A (0% ≤ substrate protein remaining % ≤80%)
CK1α substrate protein remaining % [3]: B (80%< substrate protein remaining % ≤100%)
IKZF1 substrate protein remaining % [4]: B (80%< substrate protein remaining % ≤100%)
IKZF2 substrate protein remaining % [5]: B (80%< substrate protein remaining % ≤100%)
IKZF3 substrate protein remaining % [6]: B (80%< substrate protein remaining % ≤100%)

O=C1CCN(N2C(=O)c3ccc(CN4CCC(N5C(=O)COc6cc(F)ccc65)CC4)cc3C2=O)C(=O)N1 [GT-07683, 2-(2,4-dioxotetrahydropyrimidin-1(2H)-yl)-5-((4-(7-fluoro-3-oxo-2,3-dihydro-4H-benzo[b][1,4]oxazin-4-yl)piperidin-1-yl)methyl)isoindoline-1,3-dione]
WEE1 substrate protein remaining % [1]: B (80%< substrate protein remaining % ≤100%)
GSPT1 substrate protein remaining % [2]: A (0% ≤ substrate protein remaining % ≤80%)
CK1α substrate protein remaining % [3]: B (80%< substrate protein remaining % ≤100%)
IKZF1 substrate protein remaining % [4]: B (80%< substrate protein remaining % ≤100%)
IKZF2 substrate protein remaining % [5]: B (80%< substrate protein remaining % ≤100%)
IKZF3 substrate protein remaining % [6]: B (80%< substrate protein remaining % ≤100%)

O=C1CCN(N2C(=O)c3ccc(CN4CCC(C5CCOc6cc(F)ccc65)CC4)cc3C2=O)C(=O)N1 (stereo not drawn) [GT-07684, 2-(2,4-dioxotetrahydropyrimidin-1(2H)-yl)-5-((4-(7-fluorochroman-4-yl)piperidin-1-yl)methyl)isoindoline-1,3-dione]
WEE1 substrate protein remaining % [1]: B (80%< substrate protein remaining % ≤100%)
GSPT1 substrate protein remaining % [2]: A (0% ≤ substrate protein remaining % ≤80%)
CK1α substrate protein remaining % [3]: B (80%< substrate protein remaining % ≤100%)
IKZF1 substrate protein remaining % [4]: B (80%< substrate protein remaining % ≤100%)
IKZF2 substrate protein remaining % [5]: B (80%< substrate protein remaining % ≤100%)
IKZF3 substrate protein remaining % [6]: B (80%< substrate protein remaining % ≤100%)

O=C1CCN(N2C(=O)c3ccc(CN4CCC(=C5CCOc6cc(F)ccc65)CC4)cc3C2=O)C(=O)N1 [GT-07685, 2-(2,4-dioxotetrahydropyrimidin-1(2H)-yl)-5-((4-(7-fluorochroman-4-ylidene)piperidin-1-yl)methyl)isoindoline-1,3-dione]
WEE1 substrate protein remaining % [1]: B (80%< substrate protein remaining % ≤100%)
GSPT1 substrate protein remaining % [2]: A (0% ≤ substrate protein remaining % ≤80%)
CK1α substrate protein remaining % [3]: B (80%< substrate protein remaining % ≤100%)
IKZF1 substrate protein remaining % [4]: B (80%< substrate protein remaining % ≤100%)
IKZF2 substrate protein remaining % [5]: B (80%< substrate protein remaining % ≤100%)
IKZF3 substrate protein remaining % [6]: B (80%< substrate protein remaining % ≤100%)

O=C1CCN(N2C(=O)c3ccc(CN4CCC(c5cccc6c(F)cccc56)CC4)cc3C2=O)C(=O)N1 [GT-07686, 2-(2,4-dioxotetrahydropyrimidin-1(2H)-yl)-5-((4-(5-fluoronaphthalen-1-yl)piperidin-1-yl)methyl)isoindoline-1,3-dione]
WEE1 substrate protein remaining % [1]: B (80%< substrate protein remaining % ≤100%)
GSPT1 substrate protein remaining % [2]: A (0% ≤ substrate protein remaining % ≤80%)
CK1α substrate protein remaining % [3]: B (80%< substrate protein remaining % ≤100%)
IKZF1 substrate protein remaining % [4]: B (80%< substrate protein remaining % ≤100%)
IKZF2 substrate protein remaining % [5]: B (80%< substrate protein remaining % ≤100%)
IKZF3 substrate protein remaining % [6]: B (80%< substrate protein remaining % ≤100%)
